Patent US4839344A, “Polypeptide compounds having growth hormone releasing activity” (Eastman Kodak Company, priority 1987, dated 1989)
Where “and” joins values, the source holds several entries; their conditions need not be identical. Equal entries are not always repeated. Square brackets hold non-standard residues; d marks the D form. Ends that are not written are not given here.

Test system: growth hormone (GH) release
Assay: In Vivo GH Release in Rats (serum GH by RIA)
Set-up: species or system immature female Sprague-Dawley rats
Conditions: rat serum, i.v., mean ± SEM, six rats
[1] = total dose 10 μg, sacrificed 10 minutes after final injection

| Substance | GH Released by Compound in Column A [1] | GH Released by Compound in Column A (total dose 20 (ng as printed), sacrificed 30 minutes after final injection) |
| --- | --- | --- |
| AC[dW]AW[dF]KC-NH2 (cysteine pairing not given here) [Compound 9308] | 10 ± 1 ng/mL | – |
| CAH[dW]AW[dF]KC-NH2 (cysteine pairing not given here) [Compound 8758] | 37 ± 8 ng/mL and 26 ± 9 ng/mL | 52 ± 7 ng/mL |
